Assay results: paper PMC7892475, “C-Terminal Amination of a Cationic Anti-Inflammatory Peptide Improves Bioavailability and Inhibitory Activity Against LPS-Induced Inflammation” (Frontiers in Immunology, 2021)
Entries after “also recorded” stand apart in the source; their conditions may differ. Ends that are not written are not given here.

T1: TLR4/MD-2 complex (Mus musculus, UniProt Q9QUK6)
T1 chain 1: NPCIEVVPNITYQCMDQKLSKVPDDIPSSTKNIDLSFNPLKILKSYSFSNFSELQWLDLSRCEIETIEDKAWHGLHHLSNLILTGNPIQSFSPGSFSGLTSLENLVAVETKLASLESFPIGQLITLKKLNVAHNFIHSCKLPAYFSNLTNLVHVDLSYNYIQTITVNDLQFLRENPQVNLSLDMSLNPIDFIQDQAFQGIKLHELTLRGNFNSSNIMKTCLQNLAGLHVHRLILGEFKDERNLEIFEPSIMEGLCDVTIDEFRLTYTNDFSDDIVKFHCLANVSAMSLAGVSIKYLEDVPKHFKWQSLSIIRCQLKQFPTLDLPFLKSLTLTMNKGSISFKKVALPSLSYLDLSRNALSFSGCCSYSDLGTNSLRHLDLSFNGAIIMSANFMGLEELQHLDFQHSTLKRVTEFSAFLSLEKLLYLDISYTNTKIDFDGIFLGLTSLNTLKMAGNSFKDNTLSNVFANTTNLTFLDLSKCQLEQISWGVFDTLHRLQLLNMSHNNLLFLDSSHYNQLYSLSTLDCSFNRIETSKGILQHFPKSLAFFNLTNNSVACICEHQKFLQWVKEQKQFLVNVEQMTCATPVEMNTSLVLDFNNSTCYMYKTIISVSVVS
T1 chain 2: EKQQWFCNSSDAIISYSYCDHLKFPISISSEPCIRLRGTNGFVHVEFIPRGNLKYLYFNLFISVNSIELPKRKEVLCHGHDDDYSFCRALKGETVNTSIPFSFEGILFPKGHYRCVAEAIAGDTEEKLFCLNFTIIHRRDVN

B1: CTP-NH2 (CATH2(1-13)-TP5 hybrid peptide, C-terminal amide) (peptide)
chain: RWGRFLRKIRRFRRKDVT-NH2
B2: CTP (CATH2(1-13)-TP5 hybrid peptide) (peptide)
chain: RWGRFLRKIRRFRRKDVT

What was measured:
[1] = Reverse-phase HPLC retention time as measure of peptide hydrophobicity; assay type: physicochemical; conditions: HPLC on reverse-phase matrix, aqueous solution; used by the paper as measure of hydrophobicity
Text: The retention time of peptides on a reverse-phase matrix has been reported to be related to peptide hydrophobicity ([34]).

RAW264.7 cells [2] = test: CCK-8 cell viability assay; assay type: cell-based, mouse; conditions: RAW264.7 macrophages, CCK-8, 0 to 80 μg/ml, 24 h or 72 h, 37°C
Protocol: The viability of peptide-treated RAW264.7 cells was determined using a Cell Counting Kit-8 (CCK-8) Assay Kit (Dojindo) ([35]). RAW264.7 cells were plated in 96-well plates at a density of 3×10^4 cells/ml in 100 μl DMEM overnight. The cell culture medium was then supplemented with fresh medium containing candidate peptides in a series of concentrations, and the plates were incubated for another 24 h or 72 h. Each well was incubated with 10 μl CCK-8 solution for 4 h in the dark. Afterwards, the absorbance at 450 nm was measured using a microplate reader. Cell viability was determined by:
Cell viability (%)=(OD450sample/OD450(control))×100%

[3] = tested on: LPS-stimulated RAW264.7 cells; test: Anti-inflammatory assay in LPS-stimulated RAW264.7 cells (ELISA of cytokines); assay type: cell-based, mouse; conditions: 10 μg/ml peptide 30 min before 100 ng/ml LPS, 12 h, 37°C, ELISA of supernatant
Protocol: RAW264.7 cells were treated with or without 10 μg/ml peptides for 30 min before the addition of 100 ng/ml LPS (E. coli, O55:B5, Sigma-Aldrich, Germany) and further incubation for 12 h at 37°C After treatment, the concentrations of TNF-α, IL-6, and IL-1β in the cell supernatants were assessed.
(§1) The levels of tumor necrosis factor (TNF)-α, interleukin (IL)-6, and IL-1β in cell culture supernatants and the levels of TNF-α, IL-6, and IL-1β in the serum of mice were detected using commercial ELISA kits (eBioscience, San Diego, USA) according to the manufacturer’s instructions. The levels of serum alanine amino transferase (ALT) and aspartate amino transferase (AST) were detected using commercial reagent kits (Nanjing Jiancheng Bioengineering Institute, Nanjing, China). The activity of myeloperoxidase (MPO) in the liver of mice was detected using an ELISA kit (Boster, Wuhan, China) according to the manufacturer’s instructions.

[4] = tested on: LPS-stimulated RAW264.7 cells; test: Time of addition experiment (peptide pretreatment, LPS neutralization, post-treatment) in RAW264.7 cells; assay type: cell-based, mouse; conditions: ELISA
Protocol: To identify the mechanisms underlying the anti-inflammatory effects, three different types of treatments were performed as follow.
Briefly, 10 μg/ml peptide was added to the cell culture medium and incubated with cells for 1 h at 37°C Afterwards, the RAW 264.7 cells were washed with PBS and cultured with fresh medium containing 100 ng/ml LPS for 12 h at 37°C. After treatment, TNF-α, IL-6, and IL-1β secretion in the cell supernatants was assessed.
The peptides (10 μg/ml) were incubated with 100 ng/ml LPS directly for 1 h at 37°C. RAW 264.7 cells were stimulated with these mixtures for 12 h at 37°C. Afterwards, the TNF-α, IL-6 and IL-1β levels in the cell supernatants were assessed.
Briefly, 100 ng/ml LPS was added to the cell culture medium and incubated with cells for 1 h at 37°C. Afterwards, the RAW 264.7 cells were washed with PBS and cultured with fresh medium containing 10 μg/ml peptides for 12 h at 37°C. Afterwards, the TNF-α, IL-6, and IL-1β levels in the cell supernatants were assessed.
as §1

[5] = LPS neutralization, chromogenic end-point Tachypleus Amebocyte Lysate (TAL) assay; assay type: binding, E. coli
Protocol: The neutralization of LPS by the peptides was assessed through a quantitative Chromogenic End-point Tachypleus Amebocyte Lysate (CE TAL) assay using a QCL-1000 kit (XIAMEN BIOENDO TECHNOLOGY CO., China). LPS (E. coli, O111:B4, Sigma-Aldrich, USA) at a final concentration of 1.0 U/ml was incubated with various concentrations of the peptides (0 to 64 μg/ml final concentration) at 37°C for 15 min. Afterwards, the mixtures were incubated with TAL assay reagent at 37°C; for 6 min, and the absorbance was measured at 540 nm.

RAW264.7 cells [6] = test: Cellular uptake and localization of FITC-labeled peptides (confocal microscopy, flow cytometry); assay type: cell-based, mouse; conditions: N-terminus FITC-labeled peptide, 10 μg/ml, 24 h, 37°C, confocal microscopy and flow cytometry (average FITC intensity)
Protocol: RAW264.7 cells were treated with N-terminus FITC-labeled peptides at 10 μg/ml for 24 h at 37°C; in the dark. Then, the RAW264.7 cells were rinsed with PBS three times, fixed with paraformaldehyde and washed with PBS. The cell nuclei were stained with DAPI (diluted 1:500 in PBS) (Sigma, USA) for 5 min, and the cells were washed with PBS. The above cells were spread on a glass slide, fixed and observed with a Leica TCA sp5 confocal microscope (Germany).
RAW264.7 cells were stained with 10 μg/ml N-terminus FITC-labeled peptides at 37°C in the dark for 24 h. Afterwards, the RAW264.7 cells were harvested and rinsed with PBS five times. The average FITC intensity in the cells was measured via flow cytometry.

TLR4/MD-2 complex [7] = test: Surface plasmon resonance binding; conditions: SPR, Biacore X100, PBS with 0.05% Tween 20, 30 μl/min, 1:1 model, 0 to 10 μM
Protocol: SPR assays were performed using a Biacore X100 instrument (GE Healthcare, Pittsburgh, PA, USA). PBS containing 0.05% Tween 20 was used as the running buffer. The running buffer was continuously passed into the reaction chamber at 30 μl/min. Immobilization of CTP-NH2 on the chip surface was performed according to an amino coupling protocol. […] Running buffer was injected into the empty channel as a reference. To regenerate the chip surface at the end of each experiment, 10 mM Gly-HCl buffer (pH 2.5) was injected. ProteOn manager software (version 2.0) was used to analyze the experimental data. The binding curves were processed for the start injection alignment and baseline. A reference-subtracted sensorgram was then fitted to the curves describing a homogeneous 1:1 model. Data from the protein surfaces were grouped together to fit the association kinetic rate constant (Ka) and the dissociation rate constant (Kd). The equilibrium dissociation constant (KD) for the peptide-TLR4/MD-2 interaction was calculated as follows: […]

TLR4/MD-2 complex [8] = target: T1, TLR4/MD-2 complex; test: SPR

Molecule	Retention time [1] [min]	cytotoxicity (comparison in words) (RAW264.7 cells [2])	TNF-α, IL-6 and IL-1β secretion levels [3]	TNF-α and IL-6 level, peptide used to pretreat cells or added after LPS induction ([4]; 10 μg/ml peptide 1 h then wash and 100 ng/ml LPS 12 h, or LPS 1 h, wash, then peptide 12 h)	TNF-α and IL-6 release, peptide incubated with LPS ([4]; 10 μg/ml peptide incubated with 100 ng/ml LPS 1 h at 37°C, mixture on cells 12 h)	50% binding rate value (LPS neutralization) ([5]; LPS 1.0 U/ml with 0 to 64 μg/ml peptide, 37°C 15 min, TAL reagent 6 min, absorbance 540 nm)	LPS neutralization activity ([5]; chromogenic TAL assay, LPS 1.0 U/ml, 0 to 64 μg/ml peptide)	cellular uptake and localization (RAW264.7 cells [6])	Ka (association kinetic rate constant) (TLR4/MD-2 complex [7]) [M⁻¹ s⁻¹]	Kd (TLR4/MD-2 complex [8]) [µM]
RWGRFLRKIRRFRRKDVT [CTP]	10.94	lower cytotoxicity than the parental peptide (CATH2) but higher cytotoxicity than TP5	enhanced inhibitory activity against LPS-induced inflammation	scarcely reduced the elevation in the pro-inflammatory cytokines TNF-α; also recorded: barely exerted such effects	potent inhibition of pro-inflammatory cytokine release	approximately 45.32 ± 5.19 μg/ml	inhibited activation of LPS in a dose-dependent manner	rarely entered RAW264.7 cells	1.34e+07	–
B1	–	–	–	–	–	–	–	–	–	0.947
B2	–	–	–	–	–	–	–	–	–	1.4
